From patent US6646137B1, “Non-peptide GnRH agents” (priority 1998, dated 2003)
Where two headings read alike, the source gives them in different places.

Molecular target: T1, human GnRH receptor (Homo sapiens, UniProt P30968)
T1 construct: The cDNA for the human GnRH receptor is cloned into the plasmid expression vector, pcDNA 3; expressed in transfected cells; host or cells: HEK 293 cells, stably transfected (pcDNA 3); membrane preparation
T1 sequence (P30968 1-328): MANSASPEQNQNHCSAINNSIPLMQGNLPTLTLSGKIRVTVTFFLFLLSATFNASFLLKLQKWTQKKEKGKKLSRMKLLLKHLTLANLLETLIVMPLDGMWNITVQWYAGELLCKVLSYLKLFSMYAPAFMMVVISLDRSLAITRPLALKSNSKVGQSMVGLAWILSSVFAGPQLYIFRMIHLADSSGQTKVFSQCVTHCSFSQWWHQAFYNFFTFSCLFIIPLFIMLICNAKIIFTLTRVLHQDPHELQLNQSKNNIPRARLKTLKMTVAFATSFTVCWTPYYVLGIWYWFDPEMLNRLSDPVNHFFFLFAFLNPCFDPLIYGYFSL
Test: GnRH receptor competitive radioligand binding assay (125I-GnRH-A, HEK 293 cell membranes)
Details: compound at 10 μM
Method in brief: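 Membranes from HEK 293 cells stably expressing human GnRH receptor (0.5–1.0 mg/mL) incubated 1 h at room temperature with ~0.05–0.1 nM 125I-GnRH-A plus competitor in 50 mM HEPES pH 7.4, 1 mM EDTA, 2.5 mM MgCl2, 0.1% BSA. Bound label collected by filtration onto PEI-soaked filters and counted by scintillation.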

[1] = average of 1st and 2nd test, read-out: Average % Remaining (percent of specific binding remaining)
[2] = crude compounds, 125I-GnRH-A, lower value = higher inhibition, read-out: % Remaining 1st Test (percent of specific binding remaining)
[3] = crude compounds, 125I-GnRH-A, lower value = higher inhibition, read-out: % Remaining 2nd Test (percent of specific binding remaining)

Compound | remaining activity at 10 µM [1] | remaining activity at 10 µM [2] | remaining activity at 10 µM [3]
CCOc1cc(OCC)c(OCC)cc1CN(CC1CCC(CNC(=N)N)CC1)C(=O)c1ccco1 (stereo not drawn) [Compound 87] | 52% | 57% | 47%
CCCCN(CCCC)c1ccc(CN(CC2CCC(CNC(=N)N)CC2)C(=O)c2ccco2)cc1 (stereo not drawn) [Compound 88] | 57% | 58% | 56%
CCOC(=O)C(=O)N(Cc1cc2c(cc1C)C(C)(C)CCC2(C)C)CC1CCC(CNC(=N)N)CC1 (stereo not drawn) [Compound 94] | 57% | 61% | 52%
Cc1cc2c(cc1CN(CC1CCC(CNC(=N)N)CC1)C(=O)c1c(C)noc1C)C(C)(C)CCC2(C)C (stereo not drawn) [Compound 96] | 52% | 44% | 60%
Cc1cc2c(cc1CN(CC1CCC(CNC(=N)N)CC1)C(=O)c1ccc(C#N)cc1)C(C)(C)CCC2(C)C (stereo not drawn) [Compound 98] | 58% | 58% | 58%
COC(=O)CCCCCC(=O)N(Cc1cc2c(cc1C)C(C)(C)CCC2(C)C)CC1CCC(CNC(=N)N)CC1 (stereo not drawn) [Compound 100] | 55% | 52% | 58%
Cc1cc2c(cc1CN(CC1CCC(CNC(=N)N)CC1)C(=O)Cc1ccccc1)C(C)(C)CCC2(C)C (stereo not drawn) [Compound 102] | 60% | 66% | 54%
Cc1cc(C(=O)N(Cc2cc3c(cc2C)C(C)(C)CCC3(C)C)CC2CCC(CNC(=N)N)CC2)n(C(C)(C)C)n1 (stereo not drawn) [Compound 105] | 56% | 56% | 56%
CCCCC(CC)C(=O)N(Cc1cc2c(cc1C)C(C)(C)CCC2(C)C)CC1CCC(CNC(=N)N)CC1 (stereo not drawn) [Compound 117] | 57% | 59% | 54%
Cc1cc2c(cc1CN(CC1CCC(CNC(=N)N)CC1)C(=O)c1cnn(-c3ccccc3)c1C(F)(F)F)C(C)(C)CCC2(C)C (stereo not drawn) [Compound 118] | 60% | 62% | 58%
CC(=O)O[C@@H](C)C(=O)N(Cc1cc2c(cc1C)C(C)(C)CCC2(C)C)CC1CCC(CNC(=N)N)CC1 (stereo partly drawn) [Compound 119] | 57% | 57% | 57%
